Molecular target: T1, Receptor-interacting serine/threonine-protein kinase 1 (Homo sapiens, UniProt Q13546)
T1 sequence (Q13546 whole entry): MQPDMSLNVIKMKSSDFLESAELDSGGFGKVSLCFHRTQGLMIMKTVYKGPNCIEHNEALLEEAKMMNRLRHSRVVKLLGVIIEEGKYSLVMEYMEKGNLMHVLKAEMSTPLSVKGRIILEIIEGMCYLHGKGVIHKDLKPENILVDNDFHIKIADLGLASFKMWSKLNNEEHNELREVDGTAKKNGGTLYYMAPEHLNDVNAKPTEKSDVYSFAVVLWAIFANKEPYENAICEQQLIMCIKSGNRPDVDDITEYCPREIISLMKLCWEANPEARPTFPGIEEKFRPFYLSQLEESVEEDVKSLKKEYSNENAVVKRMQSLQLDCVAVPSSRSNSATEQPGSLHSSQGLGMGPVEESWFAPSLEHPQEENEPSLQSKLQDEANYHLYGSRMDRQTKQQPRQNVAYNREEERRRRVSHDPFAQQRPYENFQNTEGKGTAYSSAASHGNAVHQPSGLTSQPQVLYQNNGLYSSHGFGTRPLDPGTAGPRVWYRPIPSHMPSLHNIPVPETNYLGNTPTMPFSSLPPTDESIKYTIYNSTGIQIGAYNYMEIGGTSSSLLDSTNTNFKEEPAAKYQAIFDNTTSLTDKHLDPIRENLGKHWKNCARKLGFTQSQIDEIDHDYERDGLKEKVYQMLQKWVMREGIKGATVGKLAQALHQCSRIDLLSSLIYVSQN
Experiment: Biochemical Assay: The ability of the receptor interacting protein kinase (RIPK1) to catalyze the hydrolysis of adenosine-5′-triphosphate (ATP) is monitored using the Transcreener ADP (adenosine-5′-diphosphate) assay (BellBrook Labs). Purified human RIP1 kinase domain (2-375) (50 nM) derived from a baculovirus-infected insect cell expression system is incubated with test compounds for 2 hours in 50 mM Hepes buffer (pH 7.5) containing 30 mM MgCl2, 1 mM dithiothreitol, 50 uM ATP, 0.002% Brij-35, and 0.5% dimethyl sulfoxide (DMSO). Reactions are quenched by the addition of 1× Bell Brooks Stop buffer B (20 mM Hepes (ph7.5), 40 mM ethylenediaminetetraacetic acid and 0.02% Brij-35) containing an additional 12 mM EDTA and 55 ug/mL ADP2 antibody and 4 nM ADP-AlexaFluor® 633 tracer. The tracer bound to the antibody is displaced by the ADP generated during the RIP1K reaction, which causes a decrease in fluorescence polarization that is measured by laser excitation at 633 nm with a FP microplate reader M1000.

O=C(c1nc2n(n1)CCOC2c1ccccc1)N1CC(F)C1 (racemic) gave a Ki of 2.1 µM.

From ChEMBL document CHEMBL5728584, “Bicyclic amide compounds and methods of use thereof” (2021)
